Data from the supplement of paper PMC10307832.

Experiments:
Experiment in all cases: relative viability (nuclei count vs DMSO), 5 days (fraction); higher = more cells survive
ChaGo-K-1 = tested on: ChaGo-K-1
Outline: (§1)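 Medians of duplicate plates are given as relative viability. That measure is the nuclei count in treated wells divided by the count in vehicle wells. Counts were taken on 4× images of lung cancer cell lines in 1536-well plates, 5 days after pin-tool dosing the day after seeding with one drug alone or a fixed anchor-drug dose plus five library-drug doses (not always all listed) in √10 steps.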

EMC-BAC-2 = tested on: EMC-BAC-2
Outline: as §1

EPLC-272H = tested on: EPLC-272H
Outline: as §1

H3255 = tested on: H3255
Outline: as §1

HCC-44 = tested on: HCC-44
Outline: as §1

HCC-827 = tested on: HCC-827
Outline: as §1

LCLC-103H = tested on: LCLC-103H
Outline: as §1

LCLC-97TM1 = tested on: LCLC-97TM1
Outline: as §1

NCI-H1355 = tested on: NCI-H1355
Outline: as §1

NCI-H1395 = tested on: NCI-H1395
Outline: as §1

NCI-H1651 = tested on: NCI-H1651
Outline: as §1

NCI-H1793 = tested on: NCI-H1793
Outline: as §1

NCI-H1944 = tested on: NCI-H1944
Outline: as §1

NCI-H2023 = tested on: NCI-H2023
Outline: as §1

NCI-H2085 = tested on: NCI-H2085
Outline: as §1

NCI-H2087 = tested on: NCI-H2087
Outline: as §1

NCI-H2405 = tested on: NCI-H2405
Outline: as §1

NCI-H322M = tested on: NCI-H322M
Outline: as §1

NCI-H520 = tested on: NCI-H520
Outline: as §1

NCI-H650 = tested on: NCI-H650
Outline: as §1

SK-MES-1 = tested on: SK-MES-1
Outline: as §1

UMC-11 = tested on: UMC-11
Outline: as §1

NC(=O)Nc1cc(-c2cccc(F)c2)sc1C(=O)N[C@H]1CCCNC1 [AZD7762] + O=C(c1cc(Cc2n[nH]c(=O)c3ccccc23)ccc1F)N1CCN(C(=O)C2CC2)CC1 [Olaparib] (partner 8 µM)
relative viability (ChaGo-K-1; first compound 0.01 µM): 0.394
relative viability (ChaGo-K-1; first compound 0.03162 µM): 0.425
relative viability (ChaGo-K-1; first compound 0.1 µM): 0.423
relative viability (ChaGo-K-1; first compound 0.3162 µM): 0.415
relative viability (ChaGo-K-1; first compound 1 µM): 0.379
relative viability (EMC-BAC-2; first compound 0.01 µM): 0.612
relative viability (EMC-BAC-2; first compound 0.03162 µM): 0.628
relative viability (EMC-BAC-2; first compound 0.1 µM): 0.626
relative viability (EMC-BAC-2; first compound 0.3162 µM): 0.64
relative viability (EMC-BAC-2; first compound 1 µM): 0.547
relative viability (EPLC-272H; first compound 0.01 µM): 1.08
relative viability (EPLC-272H; first compound 0.03162 µM): 0.707
relative viability (EPLC-272H; first compound 0.1 µM): 0.586
relative viability (EPLC-272H; first compound 0.3162 µM): 0.219
relative viability (EPLC-272H; first compound 1 µM): 0.0768
relative viability (H3255; first compound 0.01 µM): 0.551
relative viability (H3255; first compound 0.03162 µM): 0.542
relative viability (H3255; first compound 0.1 µM): 0.59
relative viability (H3255; first compound 0.3162 µM): 0.518
relative viability (H3255; first compound 1 µM): 0.497
relative viability (HCC-44; first compound 0.01 µM): 0.986
relative viability (HCC-44; first compound 0.03162 µM): 0.922
relative viability (HCC-44; first compound 0.1 µM): 1.01
relative viability (HCC-44; first compound 0.3162 µM): 0.964
relative viability (HCC-44; first compound 1 µM): 0.954
relative viability (HCC-827; first compound 0.01 µM): 0.654
relative viability (HCC-827; first compound 0.03162 µM): 0.678
relative viability (HCC-827; first compound 0.1 µM): 0.64
relative viability (HCC-827; first compound 0.3162 µM): 0.267
relative viability (HCC-827; first compound 1 µM): 0.288
relative viability (LCLC-103H; first compound 0.01 µM): 0.827
relative viability (LCLC-103H; first compound 0.03162 µM): 0.705
relative viability (LCLC-103H; first compound 0.1 µM): 0.733
relative viability (LCLC-103H; first compound 0.3162 µM): 0.772
relative viability (LCLC-103H; first compound 1 µM): 0.714
relative viability (LCLC-97TM1; first compound 0.01 µM): 0.493
relative viability (LCLC-97TM1; first compound 0.03162 µM): 0.523
relative viability (LCLC-97TM1; first compound 0.1 µM): 0.438
relative viability (LCLC-97TM1; first compound 0.3162 µM): 0.552
relative viability (LCLC-97TM1; first compound 1 µM): 0.198
relative viability (NCI-H1355; first compound 0.01 µM): 0.705
relative viability (NCI-H1355; first compound 0.03162 µM): 0.798
relative viability (NCI-H1355; first compound 0.1 µM): 0.862
relative viability (NCI-H1355; first compound 0.3162 µM): 0.862
relative viability (NCI-H1355; first compound 1 µM): 0.615
relative viability (NCI-H1395; first compound 0.01 µM): 0.505
relative viability (NCI-H1395; first compound 0.03162 µM): 0.415
relative viability (NCI-H1395; first compound 0.1 µM): 0.393
relative viability (NCI-H1395; first compound 0.3162 µM): 0.387
relative viability (NCI-H1395; first compound 1 µM): 0.354
relative viability (NCI-H1651; first compound 0.01 µM): 0.184
relative viability (NCI-H1651; first compound 0.03162 µM): 0.202
relative viability (NCI-H1651; first compound 0.1 µM): 0.156
relative viability (NCI-H1651; first compound 0.3162 µM): 0.153
relative viability (NCI-H1651; first compound 1 µM): 0.137
relative viability (NCI-H1793; first compound 0.01 µM): 0.886
relative viability (NCI-H1793; first compound 0.03162 µM): 0.909
relative viability (NCI-H1793; first compound 0.1 µM): 0.917
relative viability (NCI-H1793; first compound 0.3162 µM): 0.997
relative viability (NCI-H1793; first compound 1 µM): 0.248
relative viability (NCI-H1944; first compound 0.01 µM): 0.46
relative viability (NCI-H1944; first compound 0.03162 µM): 0.448
relative viability (NCI-H1944; first compound 0.1 µM): 0.504
relative viability (NCI-H1944; first compound 0.3162 µM): 0.532
relative viability (NCI-H1944; first compound 1 µM): 0.446
relative viability (NCI-H2023; first compound 0.01 µM): 0.463
relative viability (NCI-H2023; first compound 0.03162 µM): 0.323
relative viability (NCI-H2023; first compound 0.1 µM): 0.171
relative viability (NCI-H2023; first compound 0.3162 µM): 0.111
relative viability (NCI-H2023; first compound 1 µM): 0.0963
relative viability (NCI-H2085; first compound 0.01 µM): 0.872
relative viability (NCI-H2085; first compound 0.03162 µM): 0.86
relative viability (NCI-H2085; first compound 0.1 µM): 0.917
relative viability (NCI-H2085; first compound 0.3162 µM): 0.88
relative viability (NCI-H2085; first compound 1 µM): 0.903
relative viability (NCI-H2087; first compound 0.01 µM): 0.712
relative viability (NCI-H2087; first compound 0.03162 µM): 0.768
relative viability (NCI-H2087; first compound 0.1 µM): 0.806
relative viability (NCI-H2087; first compound 0.3162 µM): 0.858
relative viability (NCI-H2087; first compound 1 µM): 0.583
relative viability (NCI-H2405; first compound 0.01 µM): 0.889
relative viability (NCI-H2405; first compound 0.03162 µM): 0.911
relative viability (NCI-H2405; first compound 0.1 µM): 0.837
relative viability (NCI-H2405; first compound 0.3162 µM): 0.816
relative viability (NCI-H2405; first compound 1 µM): 0.294
relative viability (NCI-H322M; first compound 0.01 µM): 0.795
relative viability (NCI-H322M; first compound 0.03162 µM): 0.933
relative viability (NCI-H322M; first compound 0.1 µM): 0.85
relative viability (NCI-H322M; first compound 0.3162 µM): 0.627
relative viability (NCI-H322M; first compound 1 µM): 0.354
relative viability (NCI-H520; first compound 0.01 µM): 0.367
relative viability (NCI-H520; first compound 0.03162 µM): 0.364
relative viability (NCI-H520; first compound 0.1 µM): 0.27
relative viability (NCI-H520; first compound 0.3162 µM): 0.223
relative viability (NCI-H520; first compound 1 µM): 0.194
relative viability (NCI-H650; first compound 0.01 µM): 0.417
relative viability (NCI-H650; first compound 0.03162 µM): 0.49
relative viability (NCI-H650; first compound 0.1 µM): 0.494
relative viability (NCI-H650; first compound 0.3162 µM): 0.446
relative viability (NCI-H650; first compound 1 µM): 0.337
relative viability (SK-MES-1; first compound 0.01 µM): 0.831
relative viability (SK-MES-1; first compound 0.03162 µM): 0.828
relative viability (SK-MES-1; first compound 0.1 µM): 0.506
relative viability (SK-MES-1; first compound 0.3162 µM): 0.247
relative viability (SK-MES-1; first compound 1 µM): 0.189
relative viability (UMC-11; first compound 0.01 µM): 0.819
relative viability (UMC-11; first compound 0.03162 µM): 0.342
relative viability (UMC-11; first compound 0.1 µM): 0.277
relative viability (UMC-11; first compound 0.3162 µM): 0.256
relative viability (UMC-11; first compound 1 µM): 0.255
